# Measurements from patent US12202835B2, “Substituted aromatic ring-linked dioxinoquinazolines and dioxinoquinolines as kinase inhibitors” (BEIJING SCITECH-MQ PHARMACEUTICALS LIMITED, priority 2018, dated 2025).
# How the values were obtained:
# Ba/F3-AXL cells = assay: Assay for inhibiting the proliferation of Ba/F3-AXL cells (CCK-8); assay type: cell-based; settings: 72 hours of incubation, medium with 100 ng/mL hGas6, CCK-8
# Description: The values were then imported into Graphpad Prism 5 software for curve fitting, and IC50 was calculated.
# EBC1 cells = assay: Assay for inhibiting the proliferation of EBC1 cells (CCK-8); assay type: cell-based; settings: Homo sapiens, EBC-1
# Procedure, shortened: (§1)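 Cells seeded in 96-well plates overnight, then exposed 72 h to 9 three-fold dilutions of compound (0.25% DMSO final). Viability by CCK-8 (1-2 h at 37° C., OD 450 nm), survival normalized to untreated and cell-free blanks; IC50 by curve fitting.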
# MHCC97H cells = assay: Assay for inhibiting the proliferation of MHCC97H cells (CCK-8); assay type: cell-based; settings: Homo sapiens
# Procedure, shortened: as §1
# [1] = system: Ba/F3 LMNA-NTRK1-G595R cells; assay: Assay for inhibiting the proliferation of Ba/F3 LMNA-NTRK1-G595R cells (CCK-8); assay type: cell-based; settings: Mus musculus, BaF3
# Procedure, shortened: as §1
# Ba/F3 LMNA-NTRK1 cells = assay: Assay for inhibiting the proliferation of Ba/F3 LMNA-NTRK1 cells (CCK-8); assay type: cell-based; settings: Mus musculus, BaF3
# Procedure, shortened: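 Viability was read as absorbance at 450 nm following 1–2 h CCK-8 incubation at 37 °C, relative to control and blank wells.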
# c-MET kinase = c-MET kinase (Homo sapiens (Human), UniProt P08581); assay: Assay of small molecular compounds for inhibiting the activity of c-MET kinase (LANCE TR-FRET); assay type: biochemical; settings: read-out: CMET IC50
# c-MET kinase, sequence (P08581 25-1390): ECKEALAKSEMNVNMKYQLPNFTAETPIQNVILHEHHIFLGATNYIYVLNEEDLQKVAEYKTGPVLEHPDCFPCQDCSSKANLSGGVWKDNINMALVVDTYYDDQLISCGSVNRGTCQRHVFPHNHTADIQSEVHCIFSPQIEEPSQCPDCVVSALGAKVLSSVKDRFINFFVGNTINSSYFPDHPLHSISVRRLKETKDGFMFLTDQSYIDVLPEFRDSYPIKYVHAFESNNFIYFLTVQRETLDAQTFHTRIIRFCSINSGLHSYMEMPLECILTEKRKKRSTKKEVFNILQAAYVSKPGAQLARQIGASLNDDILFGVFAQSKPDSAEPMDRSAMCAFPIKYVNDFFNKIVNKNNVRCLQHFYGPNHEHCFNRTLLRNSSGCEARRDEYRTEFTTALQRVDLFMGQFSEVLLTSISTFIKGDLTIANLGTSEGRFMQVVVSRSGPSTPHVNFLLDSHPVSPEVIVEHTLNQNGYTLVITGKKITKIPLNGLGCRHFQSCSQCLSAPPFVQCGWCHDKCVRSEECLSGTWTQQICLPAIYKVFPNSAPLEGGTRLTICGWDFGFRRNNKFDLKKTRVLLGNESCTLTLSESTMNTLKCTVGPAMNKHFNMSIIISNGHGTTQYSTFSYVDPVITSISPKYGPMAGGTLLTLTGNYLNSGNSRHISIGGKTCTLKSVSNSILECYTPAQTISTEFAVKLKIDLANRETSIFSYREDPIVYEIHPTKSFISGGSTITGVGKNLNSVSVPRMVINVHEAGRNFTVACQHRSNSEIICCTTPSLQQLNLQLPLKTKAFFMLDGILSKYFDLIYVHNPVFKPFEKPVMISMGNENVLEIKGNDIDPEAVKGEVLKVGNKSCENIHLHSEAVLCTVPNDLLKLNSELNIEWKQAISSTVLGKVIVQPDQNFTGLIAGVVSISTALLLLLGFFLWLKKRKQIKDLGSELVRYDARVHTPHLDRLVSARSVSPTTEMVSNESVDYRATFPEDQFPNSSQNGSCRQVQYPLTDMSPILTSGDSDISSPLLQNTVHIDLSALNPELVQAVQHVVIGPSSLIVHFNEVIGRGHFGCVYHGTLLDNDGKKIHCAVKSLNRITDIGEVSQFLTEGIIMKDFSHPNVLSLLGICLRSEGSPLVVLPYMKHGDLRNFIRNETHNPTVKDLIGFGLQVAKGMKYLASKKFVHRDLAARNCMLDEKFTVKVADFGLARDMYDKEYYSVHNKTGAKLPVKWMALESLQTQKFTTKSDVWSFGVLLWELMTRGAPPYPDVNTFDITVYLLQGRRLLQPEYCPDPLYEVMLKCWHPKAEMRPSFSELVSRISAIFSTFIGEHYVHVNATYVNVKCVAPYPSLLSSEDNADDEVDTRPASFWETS
# Procedure, shortened: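 Eleven final concentrations from 2500 nM down to 0.042 nM, in 4% DMSO, were tested against human c-MET (2× stock 2 nM), with compound and enzyme premixed for 5 min. The phosphorylation reaction used 4× stock of 400 nM ULight-JAK-1 peptide and 40 μM ATP for 60 min at room temperature, then stop and detection steps. TR-FRET percent inhibition against positive and negative controls gave the IC50.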
Structure (SMILES),IC50 (Ba/F3-AXL cells),IC50 [1],IC50 (Ba/F3 LMNA-NTRK1 cells),IC50 (c-MET kinase),IC50 (EBC1 cells),IC50 (MHCC97H cells)
"CCn1cc(C(=O)Nc2ccc(Oc3ccnc4cc(OCCCN5CCOCC5)c5c(c34)OCCO5)c(F)c2)c(=O)n(-c2ccc(F)cc2)c1=O [Example 38, N-(3-fluoro-4-((5-(3-morpholinopropoxy)-2,3-dihydro-[1,4]dioxino[2,3-f]quinolin-10-yl)oxy)phenyl)-3-(4-fluorophenyl)-1-ethyl-2,4-dioxo-1,2,3,4-tetrahydropyrimidine-5-carboxamide]",< 50 nM,200 to 1000 nM,< 50 nM,≤ 50 nM,,
"COCCOc1cc2nccc(Oc3ccc(NC(=O)c4cn(C)c(=O)n(-c5ccc(F)cc5)c4=O)cc3F)c2c2c1OCCO2 [Example 42, N-(3-fluoro-4-((5-(2-methoxyethoxy)-2,3-dihydro-[1,4]dioxino[2,3-f]quinolin-10-yl)oxy)phenyl)-3-(4-fluorophenyl)-1-methyl-2,4-dioxo-1,2,3,4-tetrahydropyrimidine-5-carboxamide]",< 50 nM,50 to 200 nM,< 50 nM,≤ 50 nM,≤ 50 nM,≤ 50 nM
"CC(C)n1cc(C(=O)Nc2ccc(Oc3ccnc4cc(OCCCN(C)C5CCC5)c5c(c34)OCCO5)c(F)c2)c(=O)n(-c2ccc(F)cc2)c1=O [Example 96, N-(3-fluoro-4-((5-(3-((cyclobutyl)(methyl)amino)propoxy)-2,3-dihydro-[1,4]dioxino[2,3-f]quinolin-10-yl)oxy)phenyl)-3-(4-fluorophenyl)-1-isopropyl-2,4-dioxo-1,2,3,4-tetrahydropyrimidine-5-carboxamide]",< 50 nM,200 to 1000 nM,< 50 nM,≤ 50 nM,,
"Cn1cc(C(=O)Nc2ccc(Oc3ccnc4cc(OCCCN5CCOCC5)c5c(c34)OCCO5)cc2Cl)c(=O)n(-c2ccc(F)cc2)c1=O [Example 98, N-(2-chloro-4-((5-(3-morpholinopropoxy)-2,3-dihydro-[1,4]dioxino[2,3-f]quinolin-10-yl)oxy)phenyl)-3-(4-fluorophenyl)-1-methyl-2,4-dioxo-1,2,3,4-tetrahydropyrimidine-5-carboxamide]",< 50 nM,50 to 200 nM,< 50 nM,50 to 500 nM,,
"CC(C)n1cc(C(=O)Nc2ccc(Oc3ccnc4cc(OCC(C)(C)O)c5c(c34)OCCO5)c(F)c2)c(=O)n(-c2ccc(F)cc2)c1=O [Example 122, N-(3-fluoro-4-((5-(2-hydroxy-2-methylpropoxy)-2,3-dihydro-[1,4]dioxino[2,3-f]quinolin-10-yl)oxy)phenyl)-3-(4-fluorophenyl)-1-isopropyl-2,4-dioxo-1,2,3,4-tetrahydropyrimidine-5-carboxamide]",< 50 nM,200 to 1000 nM,< 50 nM,≤ 50 nM,,
"Cn1cc(C(=O)Nc2ccc(Oc3ccnc4cc(OCC(C)(C)O)c5c(c34)OCCO5)cc2Cl)c(=O)n(-c2ccc(F)cc2)c1=O [Example 141, N-(2-chloro-4-((5-(2-hydroxy-2-methylpropoxy)-2,3-dihydro-[1,4]dioxino[2,3-f]quinolin-10-yl)oxy)phenyl)-3-(4-fluorophenyl)-1-methyl-2,4-dioxo-1,2,3,4-tetrahydropyrimidine-5-carboxamide]",< 50 nM,50 to 200 nM,< 50 nM,≤ 50 nM,,

# Now from value to molecule, other results behind:
IC50 (Ba/F3-AXL cells),IC50 [1],IC50 (Ba/F3 LMNA-NTRK1 cells),IC50 (c-MET kinase),Structure (SMILES),IC50 (EBC1 cells),IC50 (MHCC97H cells)
< 50 nM,50 to 200 nM,< 50 nM,≤ 50 nM,"Cn1cc(C(=O)Nc2ccc(Oc3ccnc4cc(OCCCN5CCOCC5)c5c(c34)OCCO5)c(F)c2)c(=O)n(-c2ccc(F)cc2)c1=O [Example 15, N-(3-fluoro-4-((5-(3-morpholinopropoxy)-2,3-dihydro-[1,4]dioxino[2,3-f]quinolin-10-yl)oxy)phenyl)-3-(4-fluorophenyl)-1-methyl-2,4-dioxo-1,2,3,4-tetrahydropyrimidine-5-carboxamide]",≤ 50 nM,≤ 50 nM
< 50 nM,50 to 200 nM,< 50 nM,≤ 50 nM,"Cn1cc(C(=O)Nc2ccc(Oc3ccnc4cc(OCCCN5CCCCC5)c5c(c34)OCCO5)c(F)c2)c(=O)n(-c2ccc(F)cc2)c1=O [Example 39, N-(3-fluoro-4-((5-(3-(piperidin-1-yl)propoxy)-2,3-dihydro-[1,4]dioxino[2,3-f]quinolin-10-yl)oxy)phenyl)-3-(4-fluorophenyl)-1-methyl-2,4-dioxo-1,2,3,4-tetrahydropyrimidine-5-carboxamide]",≤ 50 nM,50 to 200 nM
< 50 nM,50 to 200 nM,< 50 nM,≤ 50 nM,"CCn1cc(C(=O)Nc2ccc(Oc3ccnc4cc(OCCCN5CCCCC5)c5c(c34)OCCO5)c(F)c2)c(=O)n(-c2ccc(F)cc2)c1=O [Example 41, N-(3-fluoro-4-((5-(3-(piperidin-1-yl)propoxy)-2,3-dihydro-[1,4]dioxino[2,3-f]quinolin-10-yl)oxy)phenyl)-3-(4-fluorophenyl)-1-ethyl-2,4-dioxo-1,2,3,4-tetrahydropyrimidine-5-carboxamide]",≤ 50 nM,50 to 200 nM
< 50 nM,≤ 50 nM,< 50 nM,≤ 50 nM,"COc1cc2nccc(Oc3cc(Cl)c(NC(=O)c4cn(C)c(=O)n(-c5ccc(F)cc5)c4=O)cc3F)c2c2c1OCCO2 [Example 116, N-(2-chloro-5-fluoro-4-((5-methoxy-2,3-dihydro-[1,4]dioxino[2,3-f]quinolin-10-yl)oxy)phenyl)-3-(4-fluorophenyl)-1-methyl-2,4-dioxo-1,2,3,4-tetrahydropyrimidine-5-carboxamide]",≤ 50 nM,50 to 200 nM
,≤ 50 nM,< 50 nM,≤ 50 nM,"COc1cc2nccc(Oc3cc(C)c(NC(=O)c4cn(C)c(=O)n(-c5ccc(F)cc5)c4=O)cc3F)c2c2c1OCCO2 [Example 177, N-(5-fluoro-4-((5-methoxy-2,3-dihydro-[1,4]dioxino[2,3-f]quinolin-10-yl)oxy)-2-methylphenyl)-3-(4-fluorophenyl)-1-methyl-2,4-dioxo-1,2,3,4-tetrahydropyrimidine-5-carboxamide]",,50 to 200 nM
,≤ 50 nM,< 50 nM,≤ 50 nM,"COCCOc1cc2nccc(Oc3cc(C)c(NC(=O)c4cn(C)c(=O)n(-c5ccc(F)cc5)c4=O)cc3F)c2c2c1OCCO2 [Example 179, N-(5-fluoro-4-((5-(2-methoxyethoxy)-2,3-dihydro-[1,4]dioxino[2,3-f]quinolin-10-yl)oxy)-2-methylphenyl)-3-(4-fluorophenyl)-1-methyl-2,4-dioxo-1,2,3,4-tetrahydropyrimidine-5-carboxamide]",,≤ 50 nM
,≤ 50 nM,< 50 nM,≤ 50 nM,"CCn1cc(C(=O)Nc2cc(F)c(Oc3ccnc4cc(OCCOC)c5c(c34)OCCO5)cc2C)c(=O)n(-c2ccc(F)cc2)c1=O [Example 180, N-(5-fluoro-4-((5-(2-methoxyethoxy)-2,3-dihydro-[1,4]dioxino[2,3-f]quinolin-10-yl)oxy)-2-methylphenyl)-3-(4-fluorophenyl)-1-ethyl-2,4-dioxo-1,2,3,4-tetrahydropyrimidine-5-carboxamide]",,≤ 50 nM
